Measured values: PubChem BioAssay (NCI)
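Following 48 hours of exposure in 96-well plates, responses at five concentrations were used to interpolate endpoints linearly. GI50: concentration for 50% inhibition of growth. At the TGI there is no net growth.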

What was measured:
Assay in all cases: NCI-60 cell line screen, 48 h; in the data active = GI50 below about 0.43 µM; inactive = the rest
A549 NSCLC = test system: A549 NSCLC
UO-31 renal = test system: UO-31 renal
CCRF-CEM leukemia = test system: CCRF-CEM leukemia
K-562 leukemia = test system: K-562 leukemia
OVCAR-3 ovarian = test system: OVCAR-3 ovarian
SK-MEL-2 melanoma = test system: SK-MEL-2 melanoma
U251 CNS = test system: U251 CNS
KM12 colon = test system: KM12 colon
CAKI-1 renal = test system: CAKI-1 renal
NCI/ADR-RES ovarian = test system: NCI/ADR-RES ovarian

NC(=O)C(=O)Cc1nc2ccccc2s1
> 100 µM: TGI (A549 NSCLC) | TGI (UO-31 renal) | TGI (CCRF-CEM leukemia) | TGI (K-562 leukemia) | TGI (OVCAR-3 ovarian) | TGI (SK-MEL-2 melanoma) | TGI (U251 CNS) | TGI (KM12 colon)

Nc1c(-c2nc3ccccc3s2)[n+]([O-])c2ccccc2[n+]1[O-]
81.8 µM: TGI (CAKI-1 renal)
> 100 µM: TGI (A549 NSCLC) | TGI (CCRF-CEM leukemia) | TGI (K-562 leukemia) | TGI (U251 CNS) | TGI (KM12 colon)
60.6 µM: TGI (OVCAR-3 ovarian)
77.7 µM: TGI (UO-31 renal)
74.9 µM: TGI (SK-MEL-2 melanoma)

O=CC(O)C(O)C(OC1OC(CO)C(O)C(O)C1O)C(O)CO (stereo not given) (tested in a mixture with another compound)
98.7 µM: TGI (K-562 leukemia)
50.8 µM: TGI (KM12 colon)
> 100 µM: TGI (A549 NSCLC) | TGI (UO-31 renal) | TGI (OVCAR-3 ovarian) | TGI (NCI/ADR-RES ovarian) | TGI (SK-MEL-2 melanoma) | TGI (U251 CNS) | TGI (CAKI-1 renal)

CC1(C)CC(O)CC(C)(C)N1.CC1(C)CC(O)CC(C)(C)N1.CC1(C)CC(O)CC(C)(C)N1.CC1(C)CC(O)CC(C)(C)N1.Cl.[Ti]
> 100 µM: TGI (UO-31 renal) | TGI (CCRF-CEM leukemia) | TGI (K-562 leukemia) | TGI (OVCAR-3 ovarian) | TGI (SK-MEL-2 melanoma) | TGI (U251 CNS) | TGI (CAKI-1 renal) | TGI (KM12 colon)
inactive: GI50 (UO-31 renal) > 100000 nM | GI50 (CCRF-CEM leukemia) > 100 µM | GI50 (K-562 leukemia) > 100 µM | GI50 (OVCAR-3 ovarian) > 100 µM | GI50 (SK-MEL-2 melanoma) > 100 µM | GI50 (U251 CNS) > 100000 nM | GI50 (CAKI-1 renal) > 100 µM | GI50 (KM12 colon) > 100 µM

CCN(CC)C(=O)CCCCCn1c2ccccc2c2c3c(c4c5ccccc5[nH]c4c21)C(=O)N(O)C3=O
98.4 µM: TGI (A549 NSCLC)
> 100 µM: TGI (K-562 leukemia) | TGI (NCI/ADR-RES ovarian)
21.9 µM: TGI (CCRF-CEM leukemia)
14.7 µM: TGI (KM12 colon)
12.1 µM: TGI (SK-MEL-2 melanoma)
4.22 µM: TGI (UO-31 renal)
inactive: GI50 (A549 NSCLC) 21.8 µM | GI50 (UO-31 renal) 1720 nM | GI50 (CCRF-CEM leukemia) 3.07 µM | GI50 (K-562 leukemia) 4.18 µM | GI50 (NCI/ADR-RES ovarian) 3.4 µM | GI50 (SK-MEL-2 melanoma) 3.38 µM | GI50 (U251 CNS) 1960 nM | GI50 (KM12 colon) 3.31 µM
3.78 µM: TGI (U251 CNS)

O=C(O)C1=C(C(=O)O)Oc2ccccc2O1
> 100 µM: TGI (A549 NSCLC) | TGI (UO-31 renal) | TGI (CCRF-CEM leukemia) | TGI (K-562 leukemia) | TGI (OVCAR-3 ovarian) | TGI (SK-MEL-2 melanoma) | TGI (U251 CNS) | TGI (CAKI-1 renal) | TGI (KM12 colon)

CCOC(=O)COc1cccc2occc(=O)c12
> 100 µM: TGI (A549 NSCLC) | TGI (UO-31 renal) | TGI (CCRF-CEM leukemia) | TGI (K-562 leukemia) | TGI (OVCAR-3 ovarian) | TGI (SK-MEL-2 melanoma) | TGI (U251 CNS) | TGI (CAKI-1 renal) | TGI (KM12 colon)

CC(C)(C)c1cc(C(OCCl)(C(F)(F)F)C(F)(F)F)c2c(c1)C(C(F)(F)F)(C(F)(F)F)OC21c2ccccc2C(=O)c2ccccc21
> 100 µM: TGI (A549 NSCLC) | TGI (UO-31 renal) | TGI (K-562 leukemia) | TGI (OVCAR-3 ovarian) | TGI (SK-MEL-2 melanoma) | TGI (U251 CNS) | TGI (CAKI-1 renal) | TGI (KM12 colon)

Nc1ncnc2sc(Nc3ccccc3)nc12
> 100 µM: TGI (A549 NSCLC) | TGI (UO-31 renal) | TGI (K-562 leukemia) | TGI (OVCAR-3 ovarian) | TGI (SK-MEL-2 melanoma) | TGI (U251 CNS) | TGI (CAKI-1 renal) | TGI (KM12 colon)

O=C1c2ccoc2C(=O)c2oc(=O)ccc21
> 62.2 µM: TGI (CAKI-1 renal)
14.9 µM: TGI (UO-31 renal)
42 µM: TGI (A549 NSCLC)
22.4 µM: TGI (K-562 leukemia)
8.69 µM: TGI (OVCAR-3 ovarian)
20.8 µM: TGI (U251 CNS)
> 57.7 µM: TGI (KM12 colon)
15.7 µM: TGI (CCRF-CEM leukemia)
22 µM: TGI (SK-MEL-2 melanoma)

NNC(=O)N/N=C1\CNC(=O)C(=O)C1c1nc2ccccc2s1 (stereo not given)
> 100 µM: TGI (A549 NSCLC) | TGI (UO-31 renal) | TGI (CCRF-CEM leukemia) | TGI (K-562 leukemia) | TGI (OVCAR-3 ovarian) | TGI (SK-MEL-2 melanoma) | TGI (U251 CNS) | TGI (CAKI-1 renal) | TGI (KM12 colon)

O=C(Nc1cccc(-n2cc(-c3ccncc3)c(-c3ccc(O)c(Cl)c3)n2)c1)Nc1ccc(Cl)c(Cl)c1
8.34 µM: TGI (UO-31 renal)
inactive: GI50 (A549 NSCLC) 1.54 µM | GI50 (UO-31 renal) 2670 nM | GI50 (CCRF-CEM leukemia) 1.39 µM | GI50 (U251 CNS) 1250 nM | GI50 (KM12 colon) 1.4 µM
5.73 µM: TGI (CCRF-CEM leukemia)
3.11 µM: TGI (KM12 colon)
7.27 µM: TGI (A549 NSCLC)
5.61 µM: TGI (U251 CNS)

O=S(=O)(Cc1ccccc1)SCc1ccccc1
> 27.5 µM: TGI (CCRF-CEM leukemia)
58.5 µM: TGI (OVCAR-3 ovarian)
66.2 µM: TGI (U251 CNS)
> 100 µM: TGI (A549 NSCLC) | TGI (UO-31 renal) | TGI (KM12 colon)
33.5 µM: TGI (K-562 leukemia)
> 70.9 µM: TGI (SK-MEL-2 melanoma)
> 86.2 µM: TGI (CAKI-1 renal)

O=C(CCC(=O)C1Cc2ccccc2C1=O)Nc1cccc(C(F)(F)F)c1 (stereo not given)
> 100 µM: TGI (A549 NSCLC) | TGI (UO-31 renal) | TGI (CCRF-CEM leukemia) | TGI (K-562 leukemia) | TGI (OVCAR-3 ovarian) | TGI (SK-MEL-2 melanoma) | TGI (U251 CNS) | TGI (CAKI-1 renal) | TGI (KM12 colon)

O=c1c2cccc3cccc(c4n1CCCN=4)c32
> 100 µM: TGI (A549 NSCLC) | TGI (UO-31 renal) | TGI (CCRF-CEM leukemia) | TGI (K-562 leukemia) | TGI (OVCAR-3 ovarian) | TGI (SK-MEL-2 melanoma) | TGI (U251 CNS) | TGI (CAKI-1 renal) | TGI (KM12 colon)

Nc1nc(-c2ccccc2)cc(-c2cc(Cl)ccc2O)n1
94.4 µM: TGI (OVCAR-3 ovarian)
> 100 µM: TGI (A549 NSCLC) | TGI (UO-31 renal) | TGI (CCRF-CEM leukemia) | TGI (K-562 leukemia) | TGI (U251 CNS) | TGI (CAKI-1 renal) | TGI (KM12 colon)

COc1ccc2c3c(c(C(=O)O)oc13)C(CCC(=O)O)CC2 (stereo not given)
> 100 µM: TGI (A549 NSCLC) | TGI (OVCAR-3 ovarian) | TGI (U251 CNS) | TGI (CAKI-1 renal)

COc1cc2c3c(n(CCCN4CCSCC4)c(=O)c2cc1OC)-c1cc2c(cc1C3=O)OCO2
97.1 µM: TGI (OVCAR-3 ovarian)
36.4 µM: TGI (SK-MEL-2 melanoma)
> 100 µM: TGI (A549 NSCLC) | TGI (UO-31 renal) | TGI (NCI/ADR-RES ovarian) | TGI (U251 CNS) | TGI (CAKI-1 renal) | TGI (KM12 colon)
inactive: GI50 (A549 NSCLC) > 100 µM | GI50 (UO-31 renal) > 100000 nM | GI50 (K-562 leukemia) 20.2 µM | GI50 (OVCAR-3 ovarian) 35 µM | GI50 (NCI/ADR-RES ovarian) > 100 µM | GI50 (SK-MEL-2 melanoma) 16.8 µM | GI50 (U251 CNS) > 100000 nM | GI50 (CAKI-1 renal) 21.1 µM | GI50 (KM12 colon) > 100 µM
47.8 µM: TGI (K-562 leukemia)

C1=C(c2ccccc2)C(OC2Oc3ccccc3C=C2c2ccccc2)Oc2ccccc21 (stereo not given)
> 100 µM: TGI (A549 NSCLC) | TGI (UO-31 renal) | TGI (CCRF-CEM leukemia) | TGI (K-562 leukemia) | TGI (OVCAR-3 ovarian) | TGI (SK-MEL-2 melanoma) | TGI (CAKI-1 renal) | TGI (KM12 colon)
45.1 µM: TGI (U251 CNS)

COc1ccc2nc(-c3ccc(O)cc3)ccc2c1
> 100 µM: TGI (A549 NSCLC) | TGI (UO-31 renal) | TGI (CCRF-CEM leukemia) | TGI (K-562 leukemia) | TGI (OVCAR-3 ovarian) | TGI (KM12 colon)

C/C(CC(=O)Nc1cccc(Cl)c1C)=N\N=C(N)N
> 100 µM: TGI (A549 NSCLC) | TGI (UO-31 renal) | TGI (CCRF-CEM leukemia) | TGI (K-562 leukemia) | TGI (OVCAR-3 ovarian) | TGI (SK-MEL-2 melanoma) | TGI (U251 CNS) | TGI (CAKI-1 renal) | TGI (KM12 colon)

C1CCN2CC3CONC3C2C1 (stereo not given)
> 100 µM: TGI (A549 NSCLC) | TGI (UO-31 renal) | TGI (CCRF-CEM leukemia) | TGI (K-562 leukemia) | TGI (OVCAR-3 ovarian) | TGI (SK-MEL-2 melanoma) | TGI (U251 CNS) | TGI (CAKI-1 renal) | TGI (KM12 colon)
